Assay results as given in US20200129499A1, “COMBINATION OF TASQUINIMOD OR A PHARMACEUTICALLY ACCEPTABLE SALT THEREOF AND A PD-1 AND/OR PD-L1 INHIBITOR, FOR USE AS A MEDICAMENT” (ACTIVE BIOTECH AB, priority 2015, published 2020).

Legend:
PD-L1 in CD1 1b+ cells = assay: FACS analysis of PD-L1 on tumor CD11b+ myeloid cells; assay type: in vivo, mouse
Description: FIG. 3: Median Fluorescence Intensity (MFI) of PD-L1 in CD1 1b+ cells derived from mice bearing tumors treated with tasquinimod. The mice were treated with 30 mg/kg p.o. of tasquinimod twice daily from day 10 after tumor inoculation. Tasquinimod treatment was carried out for 7 days. This analysis was done by cytometry.
FIG. 4: Treatment with tasquinimod had no effect on established MBT-2 tumor growth and induced an alteration in the profile of PD-1/PD-L1 axis. (A) Growth curves and (B) tumor weight of MBT-2 tumors treated with tasquinimod at 30 mg/kg (oral gavage, twice daily) after randomization at day 11 post tumor-cell inoculation (n=12). Mice were sacrificed. Tumors were harvested, digested and then subjected to surface staining. […] (D) Quantitative data of the Median Fluorescence Intensity of PD-L1 gated on infiltrating myeloid cells CD1 1b+ (*, P<0.05; Mann-Whitney test, n=5 mice per group).
Mice were treated as described in Example 1. […] Cells were analyzed by Fortessa X-20 (BD Biosciences).
Single cell suspensions were prepared from tumors by incubating the tumors cross-cut into small pieces in 8 mg/ml Collagenase IV (Life Technologies) and 0.1% DNase (Sigma-Aldrich) for 45 min at 37° C. […] Data were analyzed using FlowJo software (Tree Star Inc.). […] This procedure yielded predominantly CD1 1b+ cells with purity greater than 80% as assessed by FACS analysis.

CD8+ T cells = assay: Ex vivo T cell proliferation assay with tumor-derived CD11b+ cells; assay type: cell-based, mouse; conditions: CD11b+ from treated established tumors co-cultured 1:1 with T cells, 72 h; FIGS. 8A and B
Source text: FIG. 7: Combination of tasquinimod with Anti-PD-L1 increases cytotoxic T cell activity. (A) Quantitative data of the percentage of tumor-infiltrating CD8+ cells on day 15 after treatment (n=6). (B) Left panel: Representative images showing immunostaining for granzyme B (brown staining) in tumors from control or treated groups. Original magnification: X200, inset: tumor overview. Scale bar: 5θ μm. Right panel: Quantification of granzyme B positive cells on tumor sections expressed as a percentage of total cells using an antibody against granzyme B (Kruskal-Wallis test; *, P=0.0326). (C) The concentration levels (pg/ml) of the following cytokines: IL-1β, IL-7, IL-1 2(p70) and IL-15 in tumor lysate from each group were quantified using Luminex Technology (n=5). (D) Splenocytes (n=5) from each group were stimulated with PMA/ionomycin in the presence of Brefeldin A. IL-2, TNF-a and IFN-γ production was examined by intracellular staining. […] Asterisks denote statistical significance using one-way ANOVA (*, P<0.05; **, P<0.005). […] P values were calculated based on Kruskal-Wallis test between the different groups (*, P<0.05; **, P<0.005). […] (A) Representative histograms obtained by FACS analysis showing the fluorescence intensity of CFSE-T cells gated on CD8+. […] (C) IFN-γ secretion in the supernatant of the co-culture is measured 72 hours following incubation at 37° C. using Luminex Technology. […]

[1] = test system: human prostate, breast, bladder and colon tumor xenografts; conditions: pre-clinical models, Isaacs et al. 2013; cited from earlier work

COc1cccc2c1c(O)c(C(=O)N(C)c1ccc(C(F)(F)F)cc1)c(=O)n2C [tasquinimod, 4-hydroxy-5-methoxy-N,1-dimethyl-2-oxo-N-[4-(trifluoromethyl)phenyl]-1,2-dihydroquinoline-3-carboxamide]
median fluorescence intensity of PD-L1 expressed on myeloid cells (PD-L1 in CD1 1b+ cells; 30 mg/kg p.o. twice daily from day 10 for 7 days, FIG. 3): increase
expression of PD-L1 gated on CD1 1b+ cells (PD-L1 in CD1 1b+ cells; established MBT-2 tumors, tasquinimod 30 mg/kg, day 15, FIGS. 4C and D): increase
proliferation of stimulated CD8+ T cells ex vivo (CD8+ T cells): limited ability
efficacy as monotherapeutic agent against tumor xenografts [1]: effective as a monotherapeutic agent
